US20240148874A1, “IMMUNOADJUVANT-BASED HYDROGEL COMPOSITION AND USE THEREOF” (SOOCHOW UNIVERSITY, priority 2020, published 2024)

Columns and labels:
Assay type in all cases: in vivo
CT26 colon cancer tumor [1] = experiment: Chemotherapy sensitization in mouse colon cancer subcutaneous tumor model (Example 1); conditions: CT26 tumor-bearing BALB/c mice, compared with control group; intratumoral 25 μL, CpG-ODN 15 μg per mouse; oxaliplatin 3 mg/kg i.v. days 7, 10, 13, 16
Description: The sodium alginate hydrogel radiotherapy/chemotherapy sensitizing agent encapsulating the immunoadjuvant CpG-ODN was used for chemotherapy sensitization in a mouse colon cancer subcutaneous tumor model. The treatment was started on day 7 after inoculation of the mouse CT26 colon cancer tumor. Tumor-bearing BALB/c mice were randomly divided into the following 4 groups (6 mice in each group): Group 1: control group (untreated); Group 2: intratumoral injection of sodium alginate and intravenous injection of oxaliplatin (ALG+OxPt);
Group 3: intratumoral injection of sodium alginate hydrogel radiotherapy/chemotherapy sensitizing agent encapsulating the immunoadjuvant CpG-ODN (ALG/CpG); Group 4: intratumoral injection of sodium alginate hydrogel radiotherapy/chemotherapy sensitizing agent encapsulating the immunoadjuvant CpG-ODN, and intravenous injection of oxaliplatin (ALG/CpG+OxPt). The final concentration of sodium alginate in each treatment group was 10 mg/mL, the volume of intratumoral injection was 25 μL, and the dose of CpG-ODN per mouse was 15 μg. On days 7, 10, 13 and 16, oxaliplatin was administered intravenously at a dose of 3 mg/kg body weight. After respective treatments for the mice, the tumor growth was measured.

CT26 colon cancer tumor [2] = experiment: Immune response evaluation in chemotherapy sensitization, colon cancer subcutaneous tumor mouse model (Example 4); conditions: day 5 after treatment, CT26 BALB/c mice, compared with control group
Experimental: The mice were treated on day 7 after the inoculation of CT26 colon cancer tumor. Tumor-bearing BALB/c mice were randomly divided into the following 4 groups (6 mice in each group): Group 1: control group (untreated); Group 2: intratumoral injection of sodium alginate and intravenous injection of oxaliplatin (OxPt); Group 3: intratumoral injection of smart sodium alginate hydrogel preparation (ALG-A-Apt/CpG) capable of ATP-responsive slow release of immunoadjuvant obtained in Step (5) of Example 2; Group 4: intratumoral injection of smart sodium alginate hydrogel preparation capable of ATP-responsive slow release of immunoadjuvant obtained in Step (5) of Example 2 and intravenous injection of oxaliplatin (ALG-A-Apt/CpG@OxPt). The final concentration of sodium alginate in each treatment group was 10 mg/mL, the volume of intratumoral injection was 25 μL, and the dose of CpG-ODN per mouse was 15 μg. On days 7, 10, 13 and 16, oxaliplatin was administered intravenously at a dose of 3 mg/kg body weight. On day 5 after the treatment, mice in each group were sacrificed, and the maturity of dendritic cells in inguinal lymph nodes, percentage of CD8 positive T cells in the tumor, and ratio of CD8 positive T cells to regulatory T cells was identified.

CT26 colon cancer tumor [3] = experiment: Chemotherapy sensitization with smart hydrogel in colon cancer subcutaneous tumor mouse model (Example 3); conditions: CT26 tumor-bearing BALB/c mice, compared with control group; CpG-ODN 15 μg per mouse intratumoral; oxaliplatin 3 mg/kg i.v. days 7, 10, 13, 16
Experimental: The mice were treated on day 7 after the inoculation of CT26 colon cancer tumor. Tumor-bearing BALB/c mice were randomly divided into the following 6 groups (6 mice in each group): Group 1: control group (untreated); Group 2: intratumoral injection of sodium alginate and intravenous injection of oxaliplatin (ALG+OxPt); Group 3: intratumoral injection of mixture of sodium alginate with CpG-ODN (ALG/CpG); Group 4: intratumoral injection of mixture of sodium alginate and CpG-ODN and intravenous injection of oxaliplatin (ALG/CpG+OxPt); Group 5: intratumoral injection of smart sodium alginate hydrogel preparation (ALG-Aapt/CpG) capable of ATP-responsive slow release of immunoadjuvant obtained in Step (5) of Example 2; Group 6: intratumoral injection of smart sodium alginate hydrogel preparation capable of ATP-responsive slow release of immunoadjuvant obtained in Step (5) of Example 2, and intravenous injection of oxaliplatin (ALG-Aapt/CpG+OxPt). The final concentration of sodium alginate in each treatment group was 10 mg/mL, the volume of intratumoral injection was 25 μL, and the dose of CpG-ODN per mouse was 15 μg. On days 7, 10, 13 and 16, oxaliplatin was administered intravenously at a dose of 3 mg/kg body weight. After respective treatments for the mice, the tumor growth was measured.

oxaliplatin [ALG+OxPt]
tumor growth (CT26 colon cancer tumor [1]): significantly inhibited | percentage of CD8 positive T cells in the tumor (CT26 colon cancer tumor [2]): not significantly improved | ratio of CD8 positive T cells to regulatory T cells (CT26 colon cancer tumor [2]): not significantly improved | maturity of dendritic cells (DC) in lymph nodes (CT26 colon cancer tumor [2]; inguinal lymph nodes): not significantly improved | tumor growth (CT26 colon cancer tumor [3]): only partially inhibited
